The text below walks through data of US20180148418A1, “AMIDO-SUBSTITUTED CYCLOHEXANE DERIVATIVES” (Bayer Pharma Aktiengesellschaft, priority 2015, published 2018).

The subject of assay [1] is HEK293 cells cotransfected with the FOP control vector. The assay can be described thus: HEK293 FOP assay (control reporter with non-functional TCF elements). It counts as cell-based. The note with it: Homo sapiens, 16 hours. A digest of the protocol:
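Stable HEK293 line carrying FOP control reporter (randomized non-functional TCF sites, with pcDNA3), Geneticin-selected, plated 24 h before assay. Stimulated with recombinant human Wnt-3a (2500-5 ng/ml) and compounds 50 μM–15 nM (3.16-fold steps) in CAFTY buffer pH 7.4 with 2 mM Ca2+, 0.01% BSA, run parallel to TOP line.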

In another assay the target is T1, TNKS1 (Homo sapiens, UniProt O95271).
T1 construct: purchased BPS Bioscience, San Diego, USA 80579 (TNKS1 Histone Ribosylation Assay Kit)
T1 sequence (O95271 1-1327): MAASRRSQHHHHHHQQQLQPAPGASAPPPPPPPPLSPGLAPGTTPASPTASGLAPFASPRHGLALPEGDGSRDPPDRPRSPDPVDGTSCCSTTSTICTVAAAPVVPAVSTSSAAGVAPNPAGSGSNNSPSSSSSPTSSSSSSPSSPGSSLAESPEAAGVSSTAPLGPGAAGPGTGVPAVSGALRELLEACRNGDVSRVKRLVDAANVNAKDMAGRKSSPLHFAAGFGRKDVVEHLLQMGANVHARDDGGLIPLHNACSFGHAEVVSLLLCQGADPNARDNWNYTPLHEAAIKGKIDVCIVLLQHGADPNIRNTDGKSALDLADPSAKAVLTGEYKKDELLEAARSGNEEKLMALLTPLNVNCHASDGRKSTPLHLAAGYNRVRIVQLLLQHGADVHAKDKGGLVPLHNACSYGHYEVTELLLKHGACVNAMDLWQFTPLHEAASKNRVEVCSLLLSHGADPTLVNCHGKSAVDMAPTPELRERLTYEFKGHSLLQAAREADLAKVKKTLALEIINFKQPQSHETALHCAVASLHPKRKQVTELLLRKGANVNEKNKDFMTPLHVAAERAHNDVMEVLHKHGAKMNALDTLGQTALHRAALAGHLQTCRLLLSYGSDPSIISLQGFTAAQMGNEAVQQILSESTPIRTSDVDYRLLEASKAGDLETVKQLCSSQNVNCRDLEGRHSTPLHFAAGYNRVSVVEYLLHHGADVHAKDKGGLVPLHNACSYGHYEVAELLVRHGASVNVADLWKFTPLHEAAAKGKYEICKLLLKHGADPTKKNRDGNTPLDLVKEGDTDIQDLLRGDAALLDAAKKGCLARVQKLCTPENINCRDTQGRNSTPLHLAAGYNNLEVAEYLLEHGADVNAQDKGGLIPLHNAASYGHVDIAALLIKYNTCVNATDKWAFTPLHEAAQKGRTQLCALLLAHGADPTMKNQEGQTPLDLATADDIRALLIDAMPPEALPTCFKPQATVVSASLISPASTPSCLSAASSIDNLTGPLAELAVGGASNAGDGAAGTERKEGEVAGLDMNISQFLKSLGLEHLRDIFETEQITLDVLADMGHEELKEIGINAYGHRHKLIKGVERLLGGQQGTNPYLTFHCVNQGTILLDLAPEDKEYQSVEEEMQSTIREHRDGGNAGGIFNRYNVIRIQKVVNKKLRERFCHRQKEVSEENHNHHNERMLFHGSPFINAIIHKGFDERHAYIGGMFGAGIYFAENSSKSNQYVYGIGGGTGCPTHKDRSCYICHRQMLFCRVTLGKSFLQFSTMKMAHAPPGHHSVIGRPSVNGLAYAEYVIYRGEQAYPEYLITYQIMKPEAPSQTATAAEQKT
The assay can be described thus: TNKS1 Assay B (auto-parsylation, [3H]-NAD+ SPA). It counts as biochemical. The settings on record: 6 nM TNKS1, auto-parsylation, over night at room temperature.

Take `O=C(NC12CCC(C(=O)Nc3cnccc3Cl)(CC1)CC2)c1cnc2cccnn12` [Example 124, N-{4-[(4-chloropyridin-3-yl)carbamoyl]bicyclo[2.2.2]oct-1-yl}imidazo[1,2-b]pyridazine-3-carboxamide]: the half-maximal inhibitory concentration (IC50) (commonly the concentration that gives 50% inhibition) came to 8.9 µM in assay [1] and 0.23 µM against TNKS1.
Regarding `Cc1cc(NC(=O)[C@H]2CC[C@H](NC(=O)c3[nH]cnc3C(=O)NCC(C)(C)O)CC2)c(Cl)cc1F` [Example 100, N^5-{trans-4-[(2-chloro-4-fluoro-5-methylphenyl)carbamoyl]cyclohexyl}-N^4-(2-hydroxy-2-methylpropyl)-1H-imidazole-4,5-dicarboxamide], the half-inhibitory concentration (IC50) amounted to 39 µM in assay [1] and 0.18 µM against TNKS1.
The matching figures for `COCC(C)NC(=O)c1nc[nH]c1C(=O)N[C@H]1CC[C@H](C(=O)Nc2cnccc2Cl)CC1` (stereo partly drawn) [Example 99, N^5-{trans-4-[(4-chloropyridin-3-yl)carbamoyl]cyclohexyl}-N^4-(1-methoxypropan-2-yl)-1H-imidazole-4,5-dicarboxamide]: 20 µM and 0.068 µM.
